In PMC11044139, “Comparative Study of Toxic Terpenoidal Aldehydes and Lactone Derivatives from the European Polypore Bondarzewia mesenterica” (ACS Omega, 2024):
Values after ≈ are worked out from the molar mass of the structure shown. Read-outs that look alike come from different tables or passages of the source.

Tests used:
Format in all cases: cell-based
[1] = tested on: Mycobacterium smegmatis (ATCC 700084); test: Antimicrobial assay (MIC), M. smegmatis; conditions: Mycobacterium smegmatis; overnight incubation; n.i. = no inhibition up to 67 μg/mL
Method: (§1) The antimicrobial effects of the isolated compounds were determined using our established protocols.[19] Generally, an array of clinically relevant microorganisms consisting of bacteria, namely, S. aureus (DSM 346), A. baumanii (DSM 30008), B. subtilis (DSM 10), E. coli (DSM 1116), P. aeruginosa (PA14), C. violaceum (DSM 30191), and M. smegmatis (ATCC 700084), and fungi including M. hiemalis (DSM 2656), C. albicans (DSM 1665), R. glutinis (DSM 10134), S. pombe (DSM 70572), and P. anomala (DSM 6766), were used. […] The minimum inhibitory concentrations (MIC) were recorded after an overnight incubation as the lowest concentration under which no microbial growth was visualized. The microorganisms were obtained from the German Collection of Microorganisms and Cell Cultures (DSMZ, Braunschweig, Germany).

[2] = tested on: Escherichia coli (DSM 1116); test: Antimicrobial assay (MIC), E. coli; conditions: overnight incubation, n.i. = no inhibition up to 67 μg/mL
Method: as §1

[3] = tested on: Bacillus subtilis (DSM 10); test: Antimicrobial assay (MIC), B. subtilis; conditions: n.i. = no inhibition up to 67 μg/mL
Method: as §1

[4] = tested on: Mucor hiemalis (DSM 2656); test: Antimicrobial assay (MIC), M. hiemalis; conditions: n.i. = no inhibition up to 67 μg/mL
Method: as §1

[5] = tested on: Acinetobacter baumanii (DSM 30008); test: Antimicrobial assay (MIC), A. baumanii; conditions: overnight incubation, n.i. = no inhibition up to 67 μg/mL
Method: as §1

[6] = tested on: Staphylococcus aureus (DSM 346); test: Antimicrobial assay (MIC), S. aureus; conditions: overnight incubation, n.i. = no inhibition up to 67 μg/mL
Method: as §1

[7] = tested on: Pseudomonas aeruginosa (PA14); test: Antimicrobial assay (MIC), P. aeruginosa; conditions: overnight incubation, n.i. = no inhibition up to 67 μg/mL
Method: as §1

[8] = tested on: Schizosaccharomyces pombe (DSM 70572); test: Antimicrobial assay (MIC), S. pombe; conditions: overnight incubation, n.i. = no inhibition up to 67 μg/mL
Method: as §1

[9] = tested on: Pichia anomala (DSM 6766); test: Antimicrobial assay (MIC), P. anomala; conditions: Pichia anomala; overnight incubation; n.i. = no inhibition up to 67 μg/mL
Method: as §1

[10] = tested on: Candida albicans (DSM 1665); test: Antimicrobial assay (MIC), C. albicans; conditions: overnight incubation, n.i. = no inhibition up to 67 μg/mL
Method: as §1

[11] = tested on: Rhodotorula glutinis (DSM 10134); test: Antimicrobial assay (MIC), R. glutinis; conditions: overnight incubation, n.i. = no inhibition up to 67 μg/mL
Method: as §1

[12] = tested on: Chromobacterium violaceum (DSM 30191); test: Antimicrobial assay (MIC), C. violaceum; conditions: overnight incubation, n.i. = no inhibition up to 67 μg/mL
Method: as §1

Compound | MIC [1] | MIC [2] | MIC ([3]; overnight incubation) | MIC ([4]; overnight incubation) | MIC [5] | MIC [6] | MIC [7] | MIC [8] | MIC [9] | MIC [10] | MIC [11] | MIC [12] | MIC ([3]; DSM10, overnight incubation, read-out: MIC) [µg/mL] | MIC ([4]; DSM2656, overnight incubation, read-out: MIC) [µg/mL]
NC[C@H]1O[C@H](O[C@H]2[C@H](O)[C@@H](O[C@H]3O[C@H](CO)[C@@H](O)[C@H](N)[C@H]3O)[C@H](N)C[C@@H]2N)[C@H](O)[C@@H](O)[C@@H]1O [kanamycin, reference compound] | 1.70^K μg/mL | – | – | – | – | – | – | – | – | – | – | – | – | –
CC(C)=CCC(CC1=CC(=O)OC1)C(=O)O (centres unmarked) [Compound 2, vibralactones J] | n.i. | n.i. | n.i. | n.i. | n.i. | n.i. | n.i. | n.i. | n.i. | n.i. | n.i. | n.i. | – | –
CN(C)[C@@H]1C(O)=C(C(N)=O)C(=O)[C@@]2(O)C(O)=C3C(=O)c4c(O)cccc4[C@@](C)(O)[C@H]3[C@H](O)[C@@H]12 [oxytetracycline, reference compound] | – | – | – | – | – | – | – | – | – | – | – | – | 16.6 (≈ 36.1 µM) | –
CC(C)=CC[C@H]1C=C(CO)C=COC1=O [Compound 6, 1,5-secovibralactone] | n.i. | n.i. | n.i. | – | n.i. | n.i. | n.i. | n.i. | n.i. | n.i. | n.i. | n.i. | – | 66.6 (≈ 320 µM)
CC(C)(O)[C@H]1C[C@@H](CC2=CC(=O)OC2)C(=O)O1 [Compound 4, vibralactones Z1] | n.i. | n.i. | n.i. | n.i. | n.i. | n.i. | n.i. | n.i. | n.i. | n.i. | n.i. | n.i. | – | –
C[C@@H]1[C@H](O)[C@@H](C)/C=C/C=C/CC/C=C/C=C/C=C/C=C/C(O[C@H]2O[C@H](C)[C@@H](O)[C@H](N)[C@@H]2O)CC2O[C@](O)(CC(O)C(O)CCC(O)CC(O)CC(O)CC(=O)O[C@H]1C)CC(O)C2C(=O)O (some centres unmarked) [nystatin, reference compound] | – | – | – | 8.30^N μg/mL | – | – | – | 8.30^N μg/mL | 8.30^N μg/mL | 8.30^N μg/mL | 4.20^N μg/mL | – | – | –
COc1ccc([C@H](O)[C@H](C)O)cc1 [Compound 11, (4-methoxyphenyl)-1,2-propanediol] | n.i. | n.i. | n.i. | n.i. | n.i. | n.i. | n.i. | n.i. | n.i. | n.i. | n.i. | n.i. | – | –
Gentamycin [reference compound] | – | 0.83^G μg/mL | – | – | – | 0.42^G μg/mL | 0.42^G μg/mL | – | – | – | – | 1.67^G μg/mL | – | –
COc1ccc(C(=O)C(C)O)cc1 (centres unmarked) [Compound 12, 2-hydroxy-(4′-methoxy)-propiophenone] | n.i. | n.i. | n.i. | n.i. | n.i. | n.i. | n.i. | n.i. | n.i. | n.i. | n.i. | n.i. | – | –
